Reference: PMC5218480 (PLoS ONE, 2017)

Tested on: MV-4-11 cells
Test: Gene expression microarray analysis (Affymetrix PrimeView) and GSEA
Type: cell-based, human
Design: RFU PODN (11730768_x_at) / Fold change /veh PODN (11730768_x_at) / RFU LINC00158 (11744669_a_at) / Fold change /veh LINC00158 (11744669_a_at) / RFU DUSP10 (11751237_a_at) / Fold change /veh DUSP10 (11751237_a_at) / RFU ID3 (11757404_x_at) / Fold change /veh ID3 (11757404_x_at) / RFU PLEKHG5 (11737974_s_at) / Fold change /veh PLEKHG5 (11737974_s_at) / RFU LRRC4B (11730491_at) / Fold change /veh LRRC4B (11730491_at) / RFU GIMAP4 (11747438_a_at) / Fold change /veh GIMAP4 (11747438_a_at) / RFU KRT8 (11758183_x_at) / Fold change /veh KRT8 (11758183_x_at) / RFU CNN1 (11734310_a_at) / Fold change /veh CNN1 (11734310_a_at) / RFU VPS37D (11726825_at) / Fold change /veh VPS37D (11726825_at) / RFU C10orf10 (11716522_x_at) / Fold change /veh C10orf10 (11716522_x_at) / RFU KIR2DL2 /// KIR2DL4 /// KIR2DL5A /// KIR2DL5B /// KIR2DS1 /// KIR2DS2 /// KIR2DS3 /// KIR2DS4 /// KIR3DL3 /// KIR3DL3 /// KIR3DS1 (11738374_at) / Fold change /veh KIR2DL2 /// KIR2DL4 /// KIR2DL5A /// KIR2DL5B /// KIR2DS1 /// KIR2DS2 /// KIR2DS3 /// KIR2DS4 /// KIR3DL3 /// KIR3DL3 /// KIR3DS1 (11738374_at) / RFU C1QL1 (11718748_at) / Fold change /veh C1QL1 (11718748_at) / RFU TMPRSS4 (11747572_a_at) / Fold change /veh TMPRSS4 (11747572_a_at) / RFU HAMP (11756126_x_at) / Fold change /veh HAMP (11756126_x_at) / RFU RNFT2 (11725882_a_at) / Fold change /veh RNFT2 (11725882_a_at) / RFU NR4A2 (11747474_a_at) / Fold change /veh NR4A2 (11747474_a_at) / RFU ABCC12 (11746883_a_at) / Fold change /veh ABCC12 (11746883_a_at) / RFU TMEM136 (11760407_x_at) / Fold change /veh TMEM136 (11760407_x_at) / RFU CLDN22 /// WWC2 (11732394_at) / Fold change /veh CLDN22 /// WWC2 (11732394_at) / RFU HLA-DPB1 (11760878_x_at) / Fold change /veh HLA-DPB1 (11760878_x_at) / RFU SPINT1 (11716480_a_at) / Fold change /veh SPINT1 (11716480_a_at) / RFU GAP43 (11754022_s_at) / Fold change /veh GAP43 (11754022_s_at) / RFU A4GNT (11735810_at) / Fold change /veh A4GNT (11735810_at) / RFU PRB3 (11715151_x_at) / Fold change /veh PRB3 (11715151_x_at) / RFU TUBB4B (11761932_at) / Fold change /veh TUBB4B (11761932_at) / RFU CAPN14 (11732068_a_at) / Fold change /veh CAPN14 (11732068_a_at) / RFU TMCC2 (11721928_a_at) / Fold change /veh TMCC2 (11721928_a_at) / RFU IRGQ (11745062_a_at) / Fold change /veh IRGQ (11745062_a_at) / RFU FAM174B (11720279_a_at) / Fold change /veh FAM174B (11720279_a_at) / RFU TMPRSS4 (11748680_a_at) / Fold change /veh TMPRSS4 (11748680_a_at) / RFU FAM212B (11763350_a_at) / Fold change /veh FAM212B (11763350_a_at) / RFU PLEKHG5 (11743358_a_at) / Fold change /veh PLEKHG5 (11743358_a_at) / RFU ZSCAN30 (11745921_a_at) / Fold change /veh ZSCAN30 (11745921_a_at) / RFU CMKLR1 (11741424_a_at) / Fold change /veh CMKLR1 (11741424_a_at) / RFU LOC101060620 /// MAPK8IP1 (11723275_at) / Fold change /veh LOC101060620 /// MAPK8IP1 (11723275_at) / RFU SPTSSB (11747773_x_at) / Fold change /veh SPTSSB (11747773_x_at) / RFU PRSS12 (11739890_at) / Fold change /veh PRSS12 (11739890_at) / RFU BIN1 (11741810_x_at) / Fold change /veh BIN1 (11741810_x_at) / RFU WNT11 (11732464_a_at) / Fold change /veh WNT11 (11732464_a_at) / RFU C10orf10 (11716521_a_at) / Fold change /veh C10orf10 (11716521_a_at) / RFU C5orf56 (11738089_at) / Fold change /veh C5orf56 (11738089_at) / RFU CYB561 (11721691_x_at) / Fold change /veh CYB561 (11721691_x_at) / RFU ANKRD19P (11752326_a_at) / Fold change /veh ANKRD19P (11752326_a_at) / RFU OR2T12 /// OR2T33 /// OR2T8 (11738714_s_at) / Fold change /veh OR2T12 /// OR2T33 /// OR2T8 (11738714_s_at) / RFU VCAN (11748164_a_at) / Fold change /veh VCAN (11748164_a_at) / RFU JSRP1 (11732532_at) / Fold change /veh JSRP1 (11732532_at) / RFU KRTAP10-11 (11738290_x_at) / Fold change /veh KRTAP10-11 (11738290_x_at) / RFU MYO3A (11730013_a_at) / Fold change /veh MYO3A (11730013_a_at) / RFU EBF3 (11725865_a_at) / Fold change /veh EBF3 (11725865_a_at) / RFU CAMK2N1 (11719241_x_at) / Fold change /veh CAMK2N1 (11719241_x_at) / RFU C5orf56 (11738088_a_at) / Fold change /veh C5orf56 (11738088_a_at) / RFU OLFML3 (11715873_a_at) / Fold change /veh OLFML3 (11715873_a_at) / RFU LOC100653217 /// NTM (11731650_a_at) / Fold change /veh LOC100653217 /// NTM (11731650_a_at) / RFU MAPK11 (11762145_a_at) / Fold change /veh MAPK11 (11762145_a_at) / RFU FIZ1 (11724087_x_at) / Fold change /veh FIZ1 (11724087_x_at) / RFU OASL (11726364_x_at) / Fold change /veh OASL (11726364_x_at) / RFU SOX15 (11748057_x_at) / Fold change /veh SOX15 (11748057_x_at) / RFU CD79A (11719716_a_at) / Fold change /veh CD79A (11719716_a_at) / RFU HIST1H1D (11736915_at) / Fold change /veh HIST1H1D (11736915_at) / RFU CASKIN2 (11723855_a_at) / Fold change /veh CASKIN2 (11723855_a_at) / RFU LOC730098 (11760151_x_at) / Fold change /veh LOC730098 (11760151_x_at) / RFU OR4N2 (11742367_at) / Fold change /veh OR4N2 (11742367_at) / RFU PRRT2 (11749266_a_at) / Fold change /veh PRRT2 (11749266_a_at) / RFU SNX32 (11753110_a_at) / Fold change /veh SNX32 (11753110_a_at) / RFU CDHR5 (11726645_a_at) / Fold change /veh CDHR5 (11726645_a_at) / RFU RCAN1 (11760418_a_at) / Fold change /veh RCAN1 (11760418_a_at) / RFU FAM167A (11723789_a_at) / Fold change /veh FAM167A (11723789_a_at) / RFU FAM26E (11764081_at) / Fold change /veh FAM26E (11764081_at) / RFU ISYNA1 (11749810_s_at) / Fold change /veh ISYNA1 (11749810_s_at) / RFU ACY1 (11761880_at) / Fold change /veh ACY1 (11761880_at) / RFU 11764098_at / Fold change /veh 11764098_at / RFU SAMD14 (11745864_x_at) / Fold change /veh SAMD14 (11745864_x_at) / RFU NPB (11741838_a_at) / Fold change /veh NPB (11741838_a_at) / RFU TMPRSS6 (11731388_a_at) / Fold change /veh TMPRSS6 (11731388_a_at) / RFU KRTAP10-2 (11738614_at) / Fold change /veh KRTAP10-2 (11738614_at) / RFU ARHGAP8 /// PRR5-ARHGAP8 (11727945_x_at) / Fold change /veh ARHGAP8 /// PRR5-ARHGAP8 (11727945_x_at) / RFU KRTAP5-7 /// NADSYN1 (11734609_at) / Fold change /veh KRTAP5-7 /// NADSYN1 (11734609_at) / RFU RASL12 (11751679_a_at) / Fold change /veh RASL12 (11751679_a_at) / RFU CDKN2B (11736163_a_at) / Fold change /veh CDKN2B (11736163_a_at) / RFU PRF1 (11729649_at) / Fold change /veh PRF1 (11729649_at) / RFU, ZNF638 /// ZNF638-IT1 / Fold change vs veh, ZNF638 /// ZNF638-IT1 / RFU, PANK3 / Fold change vs veh, PANK3 / RFU, SH3YL1 / Fold change vs veh, SH3YL1 / RFU, ZEB2 / Fold change vs veh, ZEB2 / RFU, NRIP1 / Fold change vs veh, NRIP1 / RFU, PTTG1IP / Fold change vs veh, PTTG1IP / RFU, CAPN2 / Fold change vs veh, CAPN2 / RFU, MED14 / Fold change vs veh, MED14 / RFU, SNORA58 / Fold change vs veh, SNORA58 / RFU, C1orf63 / Fold change vs veh, C1orf63 / RFU, LRRFIP1 / Fold change vs veh, LRRFIP1 / RFU, NDUFAF7 / Fold change vs veh, NDUFAF7 / RFU, SLC12A2 / Fold change vs veh, SLC12A2 / RFU, IBTK / Fold change vs veh, IBTK / RFU, ESF1 / Fold change vs veh, ESF1 / Fold change vs veh, TMEM50B / RFU, TAOK1 / Fold change vs veh, TAOK1 / RFU, ACBD3 / Fold change vs veh, ACBD3 / RFU, TMA16 / Fold change vs veh, TMA16 / RFU, RWDD3 / Fold change vs veh, RWDD3 / RFU, BCAT1 / Fold change vs veh, BCAT1 / RFU, EDEM3 / Fold change vs veh, EDEM3 / RFU, TMEM33 / Fold change vs veh, TMEM33 / RFU, WDR75 / Fold change vs veh, WDR75 / RFU, AHCTF1 / Fold change vs veh, AHCTF1 / RFU, TFRC / Fold change vs veh, TFRC / RFU, ZDHHC17 / Fold change vs veh, ZDHHC17 / RFU, NOM1 / Fold change vs veh, NOM1 / RFU, ARL8B / Fold change vs veh, ARL8B / RFU, ZBTB11 / Fold change vs veh, ZBTB11 / RFU, TAMM41 / Fold change vs veh, TAMM41 / RFU, KIAA1704 /// LOC100996395 / Fold change vs veh, KIAA1704 /// LOC100996395 / RFU, ING1 / Fold change vs veh, ING1 / RFU, TRMT61B / Fold change vs veh, TRMT61B / RFU, FUBP3 / Fold change vs veh, FUBP3 / RFU, TP53 / Fold change vs veh, TP53 / RFU, TNKS2 / Fold change vs veh, TNKS2 / RFU, ZFP14 / Fold change vs veh, ZFP14 / RFU, ACTR2 / Fold change vs veh, ACTR2 / RFU, PPP3R1 / Fold change vs veh, PPP3R1 / RFU, PIK3R1 / Fold change vs veh, PIK3R1 / RFU, HNRNPA1 / Fold change vs veh, HNRNPA1 / RFU, RNF170 / Fold change vs veh, RNF170 / RFU, ZNF28 / Fold change vs veh, ZNF28 / RFU, RNGTT / Fold change vs veh, RNGTT / RFU, OGT / Fold change vs veh, OGT / RFU, BRD1 / Fold change vs veh, BRD1 / RFU, MARS / Fold change vs veh, MARS / RFU, ZNF655 / Fold change vs veh, ZNF655 / RFU, FAHD1 / Fold change vs veh, FAHD1 / RFU, BDP1 / Fold change vs veh, BDP1 / RFU, LRRCC1 / Fold change vs veh, LRRCC1 / RFU, ARID1A / Fold change vs veh, ARID1A / RFU, ZNF146 / Fold change vs veh, ZNF146 / RFU, ZNF330 / Fold change vs veh, ZNF330 / RFU, GPN3 / Fold change vs veh, GPN3 / RFU, C9orf123 / Fold change vs veh, C9orf123 / RFU, N4BP2L2 / Fold change vs veh, N4BP2L2 / RFU, ARFIP1 / Fold change vs veh, ARFIP1 / RFU, FAM179B / Fold change vs veh, FAM179B / RFU, BCL10 / Fold change vs veh, BCL10 / RFU, UHRF1BP1L / Fold change vs veh, UHRF1BP1L / RFU, BET1 / Fold change vs veh, BET1 / RFU, CNOT2 / Fold change vs veh, CNOT2 / RFU, ZNF268 / Fold change vs veh, ZNF268 / Fold change vs veh, ZNF507 / RFU, DGCR2 / Fold change vs veh, DGCR2 / RFU, WDSUB1 / Fold change vs veh, WDSUB1 / Fold change vs veh, HSP90B1 /// MIR3652 / RFU, ADSS / Fold change vs veh, ADSS / RFU, GK / Fold change vs veh, GK / RFU, ZNF148 / Fold change vs veh, ZNF148 / RFU, TAF9 / Fold change vs veh, TAF9 / RFU, SLC1A5 / Fold change vs veh, SLC1A5 / RFU, SLMO2 / Fold change vs veh, SLMO2 / RFU, ABCC4 / Fold change vs veh, ABCC4 / RFU, LOC101060439 /// RAP1B / Fold change vs veh, LOC101060439 /// RAP1B / RFU, RFX7 / Fold change vs veh, RFX7 / RFU, GTPBP10 / Fold change vs veh, GTPBP10 / RFU, CNEP1R1 / Fold change vs veh, CNEP1R1 / RFU, BIVM-ERCC5 /// ERCC5 / Fold change vs veh, BIVM-ERCC5 /// ERCC5 / RFU, ILF3 / Fold change vs veh, ILF3 / RFU 11762660_at / Fold change /veh 11762660_at / RFU VCAN (11757783_s_at) / Fold change /veh VCAN (11757783_s_at) / RFU DDX43 (11728927_at) / Fold change /veh DDX43 (11728927_at) / RFU KRT8 (11758188_x_at) / Fold change /veh KRT8 (11758188_x_at) / RFU NKD1 (11759106_at) / Fold change /veh NKD1 (11759106_at) / RFU SRD5A1 (11742802_a_at) / Fold change /veh SRD5A1 (11742802_a_at) / RFU TPSAB1 /// TPSB2 (11721975_s_at) / Fold change /veh TPSAB1 /// TPSB2 (11721975_s_at) / RFU GSTM3 (11746129_a_at) / Fold change /veh GSTM3 (11746129_a_at) / RFU IL23R (11737362_x_at) / Fold change /veh IL23R (11737362_x_at) / RFU TMEM51 (11727254_a_at) / Fold change /veh TMEM51 (11727254_a_at) / RFU PIWIL2 (11732686_x_at) / Fold change /veh PIWIL2 (11732686_x_at) / RFU ORM1 (11744905_x_at) / Fold change /veh ORM1 (11744905_x_at) / RFU CCDC152 (11743942_at) / Fold change /veh CCDC152 (11743942_at) / RFU ECM1 (11717891_a_at) / Fold change /veh ECM1 (11717891_a_at) / RFU IL23R (11748794_a_at) / Fold change /veh IL23R (11748794_a_at) / RFU TNFAIP8L3 (11732012_x_at) / Fold change /veh TNFAIP8L3 (11732012_x_at) / RFU MBOAT4 (11741988_at) / Fold change /veh MBOAT4 (11741988_at) / RFU 11764193_at / Fold change /veh 11764193_at / RFU TMEM53 (11763286_at) / Fold change /veh TMEM53 (11763286_at) / RFU MAGEB2 (11727129_at) / Fold change /veh MAGEB2 (11727129_at) / RFU TMEM200A (11744735_a_at) / Fold change /veh TMEM200A (11744735_a_at) / RFU CCDC152 (11751479_a_at) / Fold change /veh CCDC152 (11751479_a_at) / RFU FAM211A (11726209_a_at) / Fold change /veh FAM211A (11726209_a_at) / RFU RGS16 (11746705_a_at) / Fold change /veh RGS16 (11746705_a_at) / RFU VCAN (11755009_s_at) / Fold change /veh VCAN (11755009_s_at) / RFU RHOB (11743442_s_at) / Fold change /veh RHOB (11743442_s_at) / RFU RGS16 (11720943_a_at) / Fold change /veh RGS16 (11720943_a_at) / RFU RGS16 (11720944_at) / Fold change /veh RGS16 (11720944_at) / RFU, VPS4B / Fold change vs veh, VPS4B / RFU, CREB1 / Fold change vs veh, CREB1 / RFU, DNAJC13 / Fold change vs veh, DNAJC13 / RFU, GNAQ / Fold change vs veh, GNAQ / RFU, CDK5R1 / Fold change vs veh, CDK5R1 / RFU, ZRANB3 / Fold change vs veh, ZRANB3 / RFU, CUL4A / Fold change vs veh, CUL4A / RFU, CCNY / Fold change vs veh, CCNY / RFU, UFL1 / Fold change vs veh, UFL1 / RFU, COG3 / Fold change vs veh, COG3 / RFU, DIAPH2 / Fold change vs veh, DIAPH2 / RFU, SKA2 / Fold change vs veh, SKA2 / RFU, AFF3 / Fold change vs veh, AFF3 / RFU, LMF1 / Fold change vs veh, LMF1 / RFU, IPO11 / Fold change vs veh, IPO11 / RFU, DFFB / Fold change vs veh, DFFB / RFU, FOXP1 / Fold change vs veh, FOXP1 / RFU, CARD8 / Fold change vs veh, CARD8 / RFU, STRN3 / Fold change vs veh, STRN3 / RFU, ADK / Fold change vs veh, ADK / RFU, RASSF2 / Fold change vs veh, RASSF2 / RFU, WIPF1 / Fold change vs veh, WIPF1 / RFU, LARP1B / Fold change vs veh, LARP1B / RFU, RASA1 / Fold change vs veh, RASA1 / RFU, RB1 / Fold change vs veh, RB1 / RFU, PPFIA1 / Fold change vs veh, PPFIA1 / RFU, MAT2A / Fold change vs veh, MAT2A / RFU, CCT5 / Fold change vs veh, CCT5 / RFU, WDR92 / Fold change vs veh, WDR92 / RFU, CUX1 / Fold change vs veh, CUX1 / RFU, TTC7A / Fold change vs veh, TTC7A / RFU, TMEM135 / Fold change vs veh, TMEM135 / RFU, DEPTOR / Fold change vs veh, DEPTOR / RFU, CPM / Fold change vs veh, CPM / RFU, DNAJB6 / Fold change vs veh, DNAJB6 / RFU, CACNA2D3 / Fold change vs veh, CACNA2D3 / RFU, DTX4 / Fold change vs veh, DTX4 / RFU, TFCP2 / Fold change vs veh, TFCP2 / RFU, GMCL1 /// GMCL1P1 / Fold change vs veh, GMCL1 /// GMCL1P1 / RFU, AEBP2 / Fold change vs veh, AEBP2 / RFU, SNHG1 /// SNORD22 /// SNORD25 /// SNORD26 /// SNORD27 /// SNORD28 /// SNORD29 /// SNORD31 / Fold change vs veh, SNHG1 /// SNORD22 /// SNORD25 /// SNORD26 /// SNORD27 /// SNORD28 /// SNORD29 /// SNORD31 / Fold change (Aza/veh), C12orf56 (ProbeSet 11735607_a_at) / Fold change (ACY-1035/veh), C12orf56 (ProbeSet 11735607_a_at) / Fold change (Aza/veh), FGFR1OP (ProbeSet 11751329_s_at) / Fold change (ACY-1035/veh), FGFR1OP (ProbeSet 11751329_s_at) / Fold change (Aza/veh), VPS36 (ProbeSet 11739960_a_at) / Fold change (ACY-1035/veh), VPS36 (ProbeSet 11739960_a_at) / RFU SYPL1 (11715823_x_at) / Fold change /veh SYPL1 (11715823_x_at) / RFU IGFBP7 (11715501_s_at) / Fold change /veh IGFBP7 (11715501_s_at) / RFU REEP3 (11722064_at) / Fold change /veh REEP3 (11722064_at) / RFU IGLL1 (11728026_x_at) / Fold change /veh IGLL1 (11728026_x_at): dose or concentration left out as unconfirmed
Conditions: ProbeSet 11755159_a_at; LIST D

**Q.** Which “Fold change vs veh, COG3” value does the source give for Nc1ncn([C@@H]2O[C@H](CO)[C@@H](O)[C@H]2O)c(=O)n1 [azacitidine] here?
**A.** Its value is 0.82.
